Measured values from ChEMBL document CHEMBL5113549, “Binding versus Enzymatic Processing of ε-Trimethyllysine Dioxygenase Substrate Analogues” (ACS Med Chem Lett, 2022).
Activity calls are given as the source filed them. The rule behind the calls is not given here.

Legend:
Homo sapiens [1] = organism: Homo sapiens; assay: Binding affinity to human recombinant MBP-TMLD (42 to 421 residues) fusion protein expressed in Escherichia coli BL21-AI assessed as change in enthalpy by isothermal titration calorimetry
Homo sapiens [2] = organism: Homo sapiens; assay: Substrate activity at human recombinant MBP-TMLD (42 to 421 residues) fusion protein expressed in Escherichia coli BL21-AI assessed as hydroxylated substrate formation at 500 uM in presence of alpha-ketoglutarate by proton 1D NMR spectroscopy
[3] = Binding affinity to human recombinant MBP-TMLD (42 to 421 residues) fusion protein expressed in Escherichia coli BL21-AI by isothermal titration calorimetry
Homo sapiens [4] = organism: Homo sapiens; assay: Substrate activity at human recombinant MBP-TMLD (42 to 421 residues) fusion protein expressed in Escherichia coli BL21-AI assessed as ratio of succinate to hydroxylated substrate formation at 500 uM in presence of alpha-ketoglutarate by proton 1D NMR spectroscopy
Homo sapiens [5] = organism: Homo sapiens; assay: Binding affinity to human recombinant MBP-TMLD (42 to 421 residues) fusion protein expressed in Escherichia coli BL21-AI assessed as change in Gibbs free energy by isothermal titration calorimetry
Homo sapiens [6] = organism: Homo sapiens; assay: Binding affinity to human recombinant MBP-TMLD (42 to 421 residues) fusion protein expressed in Escherichia coli BL21-AI assessed as change in entropy by isothermal titration calorimetry
Homo sapiens [7] = organism: Homo sapiens; assay: Binding affinity to human recombinant MBP-TMLD (42 to 421 residues) fusion protein expressed in Escherichia coli BL21-AI in presence of 1.18 to 2 fold excess of co-factor Zn2+/OGA by isothermal titration calorimetry
Homo sapiens [8] = organism: Homo sapiens; assay: Binding affinity to human recombinant MBP-TMLD (42 to 421 residues) fusion protein expressed in Escherichia coli BL21-AI assessed as heat release at 300 uM in presence of co-factor OGA and Co2+ by isothermal titration calorimetry
Homo sapiens [9] = organism: Homo sapiens; assay: Binding affinity to human recombinant MBP-TMLD (42 to 421 residues) fusion protein expressed in Escherichia coli BL21-AI assessed as heat release at 300 uM in presence of co-factor OGA and Zn2+ by isothermal titration calorimetry
Homo sapiens [10] = organism: Homo sapiens; assay: Binding affinity to human recombinant MBP-TMLD (42 to 421 residues) fusion protein expressed in Escherichia coli BL21-AI assessed as heat release at 300 uM in presence of co-factor alpha-ketoglutarate and Zn2+ by isothermal titration calorimetry

SMILES | deltaH (Homo sapiens [1]) [kJ/mol] | Activity (Homo sapiens [2]) [%] | Ratio (Homo sapiens [4]) | deltaG (Homo sapiens [5]) [kJ/mol] | -TdeltaS (Homo sapiens [6]) [kJ/mol] | Activity (Homo sapiens [7]) | Activity (Homo sapiens [8]) | Activity (Homo sapiens [9]) | Activity (Homo sapiens [10]) | Kd [3] [µM]
C[N+](C)(C)CCCCC[C@H](N)C(=O)O | -5.86 | 30 | 2.9 | -26.3 | -20.5 | – | – | – | – | 25
CCC[N+](C)(C)CCCC[C@H](N)C(=O)O | -5.86 | 25 | 3.4 | -28.9 | -23 | – | – | – | – | 9.2
CC(C)C(=O)N[C@@H](CCCC[N+](C)(C)C)C(=O)[O-] | – | 12 | 3.9 | – | – | – | – | – | – | –
CC(C)[N+](C)(C)CCCC[C@H](N)C(=O)O | -23.4 | 51 | 2.4 | -28.2 | -5.02 | – | – | – | – | 11.3

Now from value to compound, other results behind:

deltaH (Homo sapiens [1]) [kJ/mol] | Activity (Homo sapiens [2]) [%] | Ratio (Homo sapiens [4]) | deltaG (Homo sapiens [5]) [kJ/mol] | -TdeltaS (Homo sapiens [6]) [kJ/mol] | Activity (Homo sapiens [7]) | Activity (Homo sapiens [8]) | Activity (Homo sapiens [9]) | Activity (Homo sapiens [10]) | SMILES | Kd [3] [µM]
-2.51 | 39 | 2.4 | -27.3 | -24.7 | – | – | – | – | CCCC[N+](C)(C)CCCC[C@H](N)C(=O)[O-] | 16.4
-26.7 | 83 | 2.1 | -29.8 | -3.14 | – | – | – | – | CC[N+](C)(C)CCCC[C@H](N)C(=O)O | 6
-22.9 | 97 | 1.3 | -29.9 | -6.95 | Active | Active | Active | Active | C[N+](C)(C)CCCC[C@H](N)C(=O)O | 5.78
-18.8 | 28 | 3.1 | -28.9 | -10.5 | – | – | – | – | C[N+](C)(C)CCC[C@H](N)C(=O)O | 7.6
